From patent US20050222173A1, “Triazolopyrimidines” (priority 2002, published 2005)

System: not listed separately
Experiment: logP determination by HPLC (EEC Directive 79/831 Annex V. A8)
Conditions: not given

chromatographic logP	Structure (SMILES)
0.37	Nc1nnc(Br)[nH]1 [Example 185, 5-bromo-1,2,4-triazole-3-amine]

Same assay, conditions: HPLC, gradient method, acetonitrile/0.1% aqueous phosphoric acid

log.P	Structure (SMILES)
3.31	CC(C)Nc1c(-c2ccc(F)cc2F)c(Cl)nc2nc(Cl)nn12 [Example 95]
3.52	CC(Nc1c(-c2ccc(F)cc2F)c(Cl)nc2nc(Cl)nn12)C(F)(F)F (stereo not shown) [Example 96]
3.63	C[C@@H](Nc1c(-c2ccccc2Cl)c(Cl)nc2nc(Cl)nn12)C(F)(F)F [Example 97]
3.59	C[C@H](Nc1c(-c2c(F)cc(F)cc2F)c(Cl)nc2nc(Br)nn12)C(F)(F)F [Example 99]
3.61	CC(C)CNc1c(-c2ccc(F)cc2F)c(Cl)nc2nc(Cl)nn12 [Example 101]
3.63	CCC(C)Nc1c(-c2ccc(F)cc2F)c(Cl)nc2nc(Cl)nn12 (stereo not shown) [Example 102]
3.79	Fc1ccc(-c2c(Cl)nc3nc(Cl)nn3c2NC2CCCC2)c(F)c1 [Example 103]
2.82	COCCNc1c(-c2ccc(F)cc2F)c(Cl)nc2nc(Cl)nn12 [Example 104]
3.01	Fc1ccc(-c2c(Cl)nc3nc(Cl)nn3c2NC2CC2)c(F)c1 [Example 105]
3.19	Fc1ccc(-c2c(Cl)nc3nc(Cl)nn3c2NCC(F)(F)F)c(F)c1 [Example 106]
3.36	Fc1ccc(-c2c(Cl)nc3nc(Cl)nn3c2NCC2CC2)c(F)c1 [Example 107]
3.3	C=C(C)CNc1c(-c2ccc(F)cc2F)c(Cl)nc2nc(Cl)nn12 [Example 108]
4.31	CC(C)CC(C)Nc1c(-c2ccc(F)cc2F)c(Cl)nc2nc(Cl)nn12 (stereo not shown) [Example 109]
1.51	CN(C)CCN(C)c1c(-c2ccc(F)cc2F)c(Cl)nc2nc(Cl)nn12 [Example 110]
3.21	C#CCN(C)c1c(-c2ccc(F)cc2F)c(Cl)nc2nc(Cl)nn12 [Example 111]
3.14	CN(CC1OCCO1)c1c(-c2ccc(F)cc2F)c(Cl)nc2nc(Cl)nn12 [Example 112]
3.69	CN(Cc1ccco1)c1c(-c2ccc(F)cc2F)c(Cl)nc2nc(Cl)nn12 [Example 113]
4.08	CC(C)CN(C)c1c(-c2ccc(F)cc2F)c(Cl)nc2nc(Cl)nn12 [Example 114]
3.2	COCCN(C)c1c(-c2ccc(F)cc2F)c(Cl)nc2nc(Cl)nn12 [Example 115]
3.98	C=C(C)CN(C)c1c(-c2ccc(F)cc2F)c(Cl)nc2nc(Cl)nn12 [Example 116]
1.65	CCN(CCN(C)C)c1c(-c2ccc(F)cc2F)c(Cl)nc2nc(Cl)nn12 [Example 117]
4.3	C=C(C)CN(CC)c1c(-c2ccc(F)cc2F)c(Cl)nc2nc(Cl)nn12 [Example 118]
3.95	C=CCN(CC)c1c(-c2ccc(F)cc2F)c(Cl)nc2nc(Cl)nn12 [Example 119]

log.P	Structure (SMILES)
3.98	CCN(Cc1ccco1)c1c(-c2ccc(F)cc2F)c(Cl)nc2nc(Cl)nn12 [Example 120]
3.87	CCN(CC1CCCO1)c1c(-c2ccc(F)cc2F)c(Cl)nc2nc(Cl)nn12 (stereo not shown) [Example 121]
3.51	CCN(CCOC)c1c(-c2ccc(F)cc2F)c(Cl)nc2nc(Cl)nn12 [Example 122]
3.61	CCOC(=O)CN(CC)c1c(-c2ccc(F)cc2F)c(Cl)nc2nc(Cl)nn12 [Example 123]
4.5	CCCCN(CC)c1c(-c2ccc(F)cc2F)c(Cl)nc2nc(Cl)nn12 [Example 124]
3.74	CCN(CC)c1c(-c2ccc(F)cc2F)c(Cl)nc2nc(Cl)nn12 [Example 125]
4.48	CCCN(CC1CC1)c1c(-c2ccc(F)cc2F)c(Cl)nc2nc(Cl)nn12 [Example 126]
4.29	CCCN(CC1CCCO1)c1c(-c2ccc(F)cc2F)c(Cl)nc2nc(Cl)nn12 (stereo not shown) [Example 127]
3.9	CCCN(CCOC)c1c(-c2ccc(F)cc2F)c(Cl)nc2nc(Cl)nn12 [Example 128]
3.73	Fc1cccc(Cl)c1-c1c(Cl)nc2nc(Cl)nn2c1N1CCSCC1 [Example 131]
3.02	Fc1cccc(Cl)c1-c1c(Cl)nc2nc(Cl)nn2c1N1CCOCC1 [Example 132]
3.54	Fc1cccc(Cl)c1-c1c(Cl)nc2nc(Cl)nn2c1N1CCCC1 [Example 134]
4.06	CCCN(CCOC)c1c(-c2c(F)cccc2Cl)c(Cl)nc2nc(Cl)nn12 [Example 135]
4.16	C=CCN(CC)c1c(-c2c(F)cccc2Cl)c(Cl)nc2nc(Cl)nn12 [Example 137]
3.74	CC(C)CNc1c(-c2c(F)cccc2Cl)c(Cl)nc2nc(Cl)nn12 [Example 139]
3.49	Fc1cccc(Cl)c1-c1c(Cl)nc2nc(Cl)nn2c1NCC1CC1 [Example 143]
3.32	COCCN(C)c1c(-c2c(F)cccc2Cl)c(Cl)nc2nc(Cl)nn12 [Example 148]
4.18	CC(C)C(C)Nc1c(-c2ccccc2Cl)c(Cl)nc2nc(Br)nn12 (stereo not shown) [Example 170]
4.01	CC(C)C(C)Nc1c(-c2c(F)cc(F)cc2F)c(Cl)nc2nc(Cl)nn12 (stereo not shown) [Example 171]
4.09	CC(C)C(C)Nc1c(-c2c(F)cccc2Cl)c(Cl)nc2nc(Cl)nn12 (stereo not shown) [Example 172]
3.96	CC(C)C(C)Nc1c(-c2ccc(F)cc2F)c(Cl)nc2nc(Cl)nn12 (stereo not shown) [Example 173]
4.16	CC(C)C(C)Nc1c(-c2ccccc2Cl)c(Cl)nc2nc(Cl)nn12 (stereo not shown) [Example 175]

Structure (SMILES)	log.P
C[C@H](Nc1c(-c2c(F)cccc2Cl)c(Cl)nc2nc(Cl)nn12)C(F)(F)F [Example 100]	3.6

System: Podosphaera leucotricha
Experiment: Podosphaera test (apple)/protective
Assay type: in vivo
Conditions: Podosphaera leucotricha, 240 h, protective, application rate 100 g/ha, evaluation 10 days after inoculation, read-out: Efficacy in %
Method: Podosphaera Test (Apple)/Protective [table] […] To test for protective activity, young plants are sprayed with the preparation of active compound at the stated application rate. After the spray coating has dried on, the plants are inoculated with an aqueous spore suspension of the apple mildew pathogen Podosphaera leucotricha. The plants are then placed in a greenhouse at about 23° C. and a relative atmospheric humidity of about 70%.

Structure (SMILES)	pest or weed control at 100 g/ha
C[C@@H](Nc1c(-c2ccccc2Cl)c(Cl)nc2nc(Cl)nn12)C(F)(F)F [drawing 32]	100%
C[C@@H](Nc1c(-c2c(F)cc(F)cc2F)c(Cl)nc2nc(Cl)nn12)C(F)(F)F [drawing 33]	100%
CC(C)Nc1c(-c2ccccc2Cl)c(Cl)nc2nc(Br)nn12 [drawing 34]	87%
CCC(C)CNc1c(-c2c(F)cc(F)cc2F)c(Cl)nc2nc(Cl)nn12 (stereo not shown) [drawing 35]	100%
CCC(C)CNc1c(-c2c(F)cc(F)cc2F)c(Cl)nc2nc(Br)nn12 (stereo not shown) [drawing 36]	94%
Clc1nc2nc(Cl)c(-c3ccccc3Cl)c(NCC3CC3)n2n1 [drawing 37]	97%
C[C@H](Nc1c(-c2c(F)cc(F)cc2F)c(Cl)nc2nc(Br)nn12)C(F)(F)F [drawing 38]	100%
CC(C)CNc1c(-c2ccc(F)cc2F)c(Cl)nc2nc(Cl)nn12 [drawing 40]	100%
C[C@H](Nc1c(-c2c(F)cccc2Cl)c(Cl)nc2nc(Cl)nn12)C(F)(F)F [drawing 41]	100%
Fc1ccc(-c2c(Cl)nc3nc(Cl)nn3c2N[C@@H](Cl)C(F)(F)F)c(F)c1 [drawing 42]	100%
Fc1cccc(Cl)c1-c1c(Cl)nc2nc(Cl)nn2c1N1CCCC1 [drawing 43]	93%
C=CCN(CC)c1c(-c2c(F)cccc2Cl)c(Cl)nc2nc(Cl)nn12 [drawing 44]	95%
CC(C)CNc1c(-c2c(F)cccc2Cl)c(Cl)nc2nc(Cl)nn12 [drawing 45]	100%
Fc1cccc(Cl)c1-c1c(Cl)nc2nc(Cl)nn2c1NCC1CC1 [drawing 46]	100%
COCCN(C)c1c(-c2c(F)cccc2Cl)c(Cl)nc2nc(Cl)nn12 [drawing 47]	100%
COc1nc2nc(Cl)c(-c3c(F)cc(F)cc3OC)c(NC(C)C(F)(F)F)n2n1 (stereo not shown) [drawing 49]	83%

Same assay, conditions: Podosphaera leucotricha, 240 h, protective, application rate 199 g/ha, evaluation 10 days after inoculation, read-out: Efficacy in %

Structure (SMILES)	pest or weed control at 199 g/ha
CC1CCCN(c2c(-c3c(F)cc(F)cc3F)c(Cl)nc3nc(Cl)nn23)C1 (stereo not shown) [drawing 39]	94%

Same assay, conditions: protective, application rate 100 g/ha, evaluation 10 days after inoculation

Structure (SMILES)	Efficacy in %
C=C(C)CN(C)c1c(-c2c(F)cccc2Cl)c(Cl)nc2nc(Cl)nn12 [drawing 48]	100%

System: Venturia inaequalis
Experiment: Venturia test (apple)/protective
Assay type: in vivo
Conditions: Venturia inaequalis, 240 h, protective, application rate 100 g/ha, evaluation 10 days after inoculation, read-out: Efficacy in %
Method: Venturia Test (Apple)/Protective [table] To produce a suitable preparation of active compound, 1 part by weight of active compound is mixed with the stated amounts of solvent and emulsifier, and the concentrate is diluted with water to the desired concentration. To test for protective activity, young plants are sprayed with the preparation of active compound at the stated application rate. […] The plants are then placed in a greenhouse at about 21° C. and a relative atmospheric humidity of about […].

Structure (SMILES)	pest or weed control at 100 g/ha
C[C@@H](Nc1c(-c2ccccc2Cl)c(Cl)nc2nc(Cl)nn12)C(F)(F)F [drawing 50]	100%
C[C@@H](Nc1c(-c2c(F)cc(F)cc2F)c(Cl)nc2nc(Cl)nn12)C(F)(F)F [drawing 51]	100%
CC(C)Nc1c(-c2ccccc2Cl)c(Cl)nc2nc(Br)nn12 [drawing 52]	98%
CCC(C)CNc1c(-c2c(F)cc(F)cc2F)c(Cl)nc2nc(Cl)nn12 (stereo not shown) [drawing 53]	83%
CCC(C)CNc1c(-c2c(F)cc(F)cc2F)c(Cl)nc2nc(Br)nn12 (stereo not shown) [drawing 54]	80%
Clc1nc2nc(Cl)c(-c3ccccc3Cl)c(NCC3CC3)n2n1 [drawing 55]	96%
C[C@H](Nc1c(-c2c(F)cc(F)cc2F)c(Cl)nc2nc(Br)nn12)C(F)(F)F [drawing 56]	99%
CC1CCCN(c2c(-c3c(F)cc(F)cc3F)c(Cl)nc3nc(Cl)nn23)C1 (stereo not shown) [drawing 57]	96%
CC(C)CNc1c(-c2ccc(F)cc2F)c(Cl)nc2nc(Cl)nn12 [drawing 58]	85%
C[C@H](Nc1c(-c2c(F)cccc2Cl)c(Cl)nc2nc(Cl)nn12)C(F)(F)F [drawing 59]	100%
Fc1ccc(-c2c(Cl)nc3nc(Cl)nn3c2N[C@@H](Cl)C(F)(F)F)c(F)c1 [drawing 60]	100%
